Results as given in patent publication US11649460B2, “DNA aptamers, method for inhibiting human galectin-1 and method of treating a mammal in need thereof” (priority 2020, dated 2023).
Like-named read-outs stand apart in the source and are kept apart here.

How the values were obtained:
[1] = system: MCF-7 human breast adenocarcinoma cell line; test: SRB cell proliferation (cytotoxicity) assay, MCF-7
Text: (§1) The XLSTAT software was used to determine the IC50, TGI and LC50 values using the four-parameter logistic curve equation.

[2] = system: DU-145 human prostate carcinoma cell line; test: SRB cell proliferation (cytotoxicity) assay, DU-145; settings: for Relative cell viability (%): human
Text: as §1

[3] = system: A-375 human malignant melanoma; test: SRB cell proliferation (cytotoxicity) assay, A-375
Text: as §1

[4] = system: HT-29 human colorectal adenocarcinoma; test: SRB cell proliferation (cytotoxicity) assay, HT-29
Text: as §1

[5] = system: HCT 116 human colorectal carcinoma; test: SRB cell proliferation (cytotoxicity) assay, HCT 116
Text: as §1

[6] = system: SK-BR-3 human breast adenocarcinoma; test: SRB cell proliferation (cytotoxicity) assay, SK-BR-3
Text: as §1

[7] = system: NHF human foreskin skin fibroblasts; test: SRB cell proliferation (cytotoxicity) assay, NHF; settings: for IC50: read-out: IC50: Concentration to inhibit 50% of cell growth
Text: as §1

[8] = system: OVCAR-3 human ovarian adenocarcinoma cell line; test: SRB cell proliferation (cytotoxicity) assay, OVCAR-3; settings: for Relative cell viability (%): human
Text: as §1

[9] = in vitro; settings: human
Text: as §1

[10] = biological target: T1, hGal1-induced hemagglutination of red blood cells (Homo sapiens, UniProt P09382); test: Hemagglutination inhibition assay, native hGal1; format: cell-based; settings: native Gal1 5 μM
T1 construct: 42; made in house; host or cells: E. coli strain M-15
Description: Hemagglutination Inhibition Assay
Hemagglutination assay was adopted to assess the capacity of SEQ ID NO.: 4 in inhibiting the lectin cross-linking aggregation of red blood cells (RBC), as previously described. Briefly, using a 96-well microplates appropriate amounts of 5 μM hGal1 were blended with 50 μL of aptamer in an increasing concentrations manner (0-40 μM) in PBS 1× buffer (pH 7.4). Following, 50 μL of 3% purified type B+ RBC in PBS. After 2 h of room temperature incubation, the plate was photographed and the hemagglutination area was estimated by area calculator Sketchandcalc™ and the results were expressed as relative agglutination.

[11] = biological target: T2, native human galectin-1 (hGal1) (Homo sapiens, UniProt P09382); test: Thermofluor thermal shift assay (TSA), native galectin-1; format: binding; settings: 5 μM protein
T2 construct: 42; made in house; host or cells: E. coli strain M-15
Description: In an attempt to screen among the selected aptamers that better interact with hGal1, differential scanning fluorimetry (Termofluor) was used to characterize their binding to its target. Among all the selected aptamers, SEQ ID NO.: 4 seemed to have a more intense effect on hGal1 thermoshift and so was chosen for further analysis. The selected aptamer had its interaction evaluated with native and alkylated galectin-1. […] The respective thermal displacements were evaluated as a function of an increasing concentration of SEQ ID NO.: 4 (FIG. 1).
Thermofluor experiments were performed on an Mx3005 RT-PCR (Agilent Technologies) using the SYPRO® Orange dye (492/610 nm) (Invitrogen) as fluorescent probe. The purified (native and alkylated) protein samples were incubated for 30 min with increasing concentration of the molecules of interest, centrifuged, and submitted to the thermal denaturation assay, totalizing four distinct experiments. In a 96-well plate (Agilent Technologies) 20 μl of the reaction containing 5 μM of each protein in buffer PBS 1× and 5× SYPRO® Orange were heated from 25° C. to 95° C. at a rate of 1° C./min. The experimental result was processed as in the protocol previously described and the melting temperature was obtained using GraphPad Prism software (www.graphpad.com).

[12] = system: OVCAR-3 cell line; test: Synergism test with cisplatin, OVCAR-3; settings: cisplatin 3 μM
Description: For the analysis of cell proliferation, the non-clonogenic method of sulforodamine B (SRB) was used, a protein dye that binds to the basic amino acid residues of cell proteins that were viable at the time of the fixation process. Therefore, the greater the amount of SRB bound per compartment, the less the antiproliferative activity of the item under study.

[13] = read-out: IC50: Concentration to inhibit 50% of cell growth, DU-145
[14] = read-out: IC50: Concentration to inhibit 50% of cell growth, HT-29
[15] = read-out: IC50: Concentration to inhibit 50% of cell growth, SK-BR-3
[16] = Homo sapiens, MCF7, read-out: Relative cell viability (%)
[17] = Homo sapiens, DU-145, read-out: Relative cell viability (%)
[18] = Homo sapiens, A-375, read-out: Relative cell viability (%)
[19] = Homo sapiens, HT-29, read-out: Relative cell viability (%)
[20] = Homo sapiens, HCT-116, read-out: Relative cell viability (%)
[21] = Homo sapiens, SK-BR-3, read-out: Relative cell viability (%)
[22] = Homo sapiens, OVCAR-3, read-out: Relative cell viability (%)

T1 sequence (P09382 2-135): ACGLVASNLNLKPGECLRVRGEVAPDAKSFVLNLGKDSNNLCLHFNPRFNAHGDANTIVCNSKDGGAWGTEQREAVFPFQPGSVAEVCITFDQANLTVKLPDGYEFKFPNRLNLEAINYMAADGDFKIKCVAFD
T2 sequence (P09382 2-135): as above

N.N.[Cl][Pt][Cl] [Cisplatin, reference compound]
TGI: Concentration for total inhibition of cell growth ([1]; MCF-7): 35.869 µM | TGI: Concentration for total inhibition of cell growth ([2]; DU-145): <3.906 µM | IC50 [2, 13]: < 3.91 µM | TGI: Concentration for total inhibition of cell growth ([3]; A-375): 7.96 µM | TGI: Concentration for total inhibition of cell growth ([4]; HT-29): 64.977 µM | IC50 [4, 14]: < 3.91 µM | TGI: Concentration for total inhibition of cell growth ([5]; HCT 116): 15.550 µM | TGI: Concentration for total inhibition of cell growth ([6]; SK-BR-3): 4.491 µM | IC50 [6, 15]: < 3.91 µM | TGI: Concentration for total inhibition of cell growth ([7]; NHF): 16.139 µM | IC50 ([7]; NHF): 4.77 µM

CC(=O)O[C@H]1C(=O)[C@@]2(C)[C@H]([C@H](OC(=O)c3ccccc3)[C@]3(O)C[C@H](OC(=O)[C@H](O)[C@@H](NC(=O)c4ccccc4)c4ccccc4)C(C)=C1C3(C)C)[C@]1(OC(C)=O)CO[C@@H]1C[C@@H]2O [Paclitaxel, reference compound]
IC50 ([1]; Homo sapiens, MCF7, read-out: IC50: Concentration to inhibit 50% of cell growth): 0.00282 µM | viability at 0.000781 µM [1, 16]: 87.9% | viability at 0.001562 µM [1, 16]: 65.5% | viability at 0.003125 µM [1, 16]: 47.6% | viability at 0.00625 µM [1, 16]: 36.9% | viability at 0.0125 µM [1, 16]: 29.3% | viability at 0.05 µM [1, 16]: 23.6% | viability at 0.1 µM [1, 16]: 24.7% | TGI: Concentration for total inhibition of cell growth ([2]; DU-145): 0.013021 µM | IC50 ([2]; Homo sapiens, DU-145, read-out: IC50: Concentration to inhibit 50% of cell growth): 0.0072 µM | viability at 0.000781 µM [2, 17]: 104% | viability at 0.001562 µM [2, 17]: 95.5% | viability at 0.003125 µM [2, 17]: 97.3% | viability at 0.00625 µM [2, 17]: 58.9% | viability at 0.0125 µM [2, 17]: 8.4% | Relative cell viability (%) ([2]; 0.05 µM): −15.7% | Relative cell viability (%) ([2]; 0.1 µM): −25.6% | viability at 0.000781 µM [3, 18]: 117% | viability at 0.001562 µM [3, 18]: 96.3% | viability at 0.003125 µM [3, 18]: 99.4% | viability at 0.00625 µM [3, 18]: 98.8% | viability at 0.0125 µM [3, 18]: 113% | viability at 0.05 µM [3, 18]: 91.2% | viability at 0.1 µM [3, 18]: 69% | IC50 ([4]; Homo sapiens, HT-29, read-out: IC50: Concentration to inhibit 50% of cell growth): 0.00631 µM | viability at 0.000781 µM [4, 19]: 102% | viability at 0.001562 µM [4, 19]: 99.1% | viability at 0.003125 µM [4, 19]: 80.8% | viability at 0.00625 µM [4, 19]: 48.8% | viability at 0.0125 µM [4, 19]: 24.5% | viability at 0.05 µM [4, 19]: 6.7% | viability at 0.1 µM [4, 19]: 5% | IC50 ([5]; Homo sapiens, HCT-116, read-out: IC50: Concentration to inhibit 50% of cell growth): 0.00646 µM | viability at 0.000781 µM [5, 20]: 96.2% | viability at 0.001562 µM [5, 20]: 96.6% | viability at 0.003125 µM [5, 20]: 90.9% | viability at 0.00625 µM [5, 20]: 50.6% | viability at 0.0125 µM [5, 20]: 17.5% | viability at 0.05 µM [5, 20]: 3.4% | viability at 0.1 µM [5, 20]: 4.7% | IC50 ([6]; Homo sapiens, SK-BR-3, read-out: IC50: Concentration to inhibit 50% of cell growth): 0.0148 µM | viability at 0.000781 µM [6, 21]: 113% | viability at 0.001562 µM [6, 21]: 113% | viability at 0.003125 µM [6, 21]: 119% | viability at 0.00625 µM [6, 21]: 106% | viability at 0.0125 µM [6, 21]: 68.3% | viability at 0.05 µM [6, 21]: 12.3% | viability at 0.1 µM [6, 21]: 13.9% | IC50 ([8]; Homo sapiens, OVCAR-3, read-out: IC50: Concentration to inhibit 50% of cell growth): 0.01 µM | CC50 ([8]; Homo sapiens, OVCAR-3, read-out: LC50: Concentration for 50% cell death): 0.0351 µM | viability at 0.000781 µM [8, 22]: 96.9% | viability at 0.001562 µM [8, 22]: 90.1% | viability at 0.003125 µM [8, 22]: 89.6% | viability at 0.00625 µM [8, 22]: 69.6% | viability at 0.0125 µM [8, 22]: 31.1% | TGI: Concentration for total inhibition of cell growth ([8]; OVCAR-3): 0.015402 µM | Relative cell viability (%) ([8]; 0.05 µM): −45.1% | Relative cell viability (%) ([8]; 0.1 µM): −57.5% | CC50 [9]: > 0.1 µM | viability at 0.000781 µM [9]: 86.6% | viability at 0.001562 µM [9]: 79.7% | viability at 0.003125 µM [9]: 72.1% | viability at 0.00625 µM [9]: 61.9% | viability at 0.0125 µM [9]: 58.6% | viability at 0.05 µM [9]: 28.7% | viability at 0.1 µM [9]: 16.9% | IC50 ([7]; Homo sapiens, Skin fibroblast): 0.0187 µM | TGI: Concentration for total inhibition of cell growth ([7]; NHF): >0.1 µM

OC[C@H]1O[C@@H](O[C@H]2[C@H](O)[C@@H](O)C(O)O[C@@H]2CO)[C@H](O)[C@@H](O)[C@H]1O (some centres unmarked) [Lactose, reference compound]
inhibitory effect on galectin-induced hemagglutination [10]: inhibited hemagglutinating activity

B1: AGCTGACACAGCAGGTTGGTGCGCCCAATACAGGCGCAGTATCTGTCCGTGGGCCGGGTAAAAGTTACGGACCGAGTCGAGCAATCTCGAAAT (nucleic acid)
DNA: AGCTGACACAGCAGGTTGGTGCGCCCAATACAGGCGCAGTATCTGTCCGTGGGCCGGGTAAAAGTTACGGACCGAGTCGAGCAATCTCGAAAT
modifications: chemistry not given here
TGI: Concentration for total inhibition of cell growth ([1]; MCF-7): 48.434 µM | IC50 ([1]; read-out: IC50: Concentration to inhibit 50% of cell growth, MCF-7): 17.8 µM | CC50 ([1]; read-out: LC50: Concentration for 50% cell death, MCF-7): 84.1 µM | TGI: Concentration for total inhibition of cell growth ([2]; DU-145): 42.423 µM | IC50 [2, 13]: 23.4 µM | CC50 ([2]; read-out: LC50: Concentration for 50% cell death, DU-145): 83.5 µM | TGI: Concentration for total inhibition of cell growth ([3]; A-375): 36.326 µM | IC50 ([3]; read-out: IC50: Concentration to inhibit 50% of cell growth, A-375): 26.3 µM | CC50 ([3]; read-out: LC50: Concentration for 50% cell death, A-375): 51.5 µM | TGI: Concentration for total inhibition of cell growth ([4]; HT-29): 30.010 µM | IC50 [4, 14]: 14.6 µM | CC50 ([4]; read-out: LC50: Concentration for 50% cell death, HT-29): 60.3 µM | TGI: Concentration for total inhibition of cell growth ([5]; HCT 116): 41.730 µM | IC50 ([5]; read-out: IC50: Concentration to inhibit 50% of cell growth, HCT 116): 16 µM | CC50 ([5]; read-out: LC50: Concentration for 50% cell death, HCT 116): 96.3 µM | TGI: Concentration for total inhibition of cell growth ([6]; SK-BR-3): 37.529 µM | IC50 [6, 15]: 24.3 µM | CC50 ([6]; read-out: LC50: Concentration for 50% cell death, SK-BR-3): 60.2 µM | TGI: Concentration for total inhibition of cell growth ([8]; OVCAR-3): 37.711 µM | IC50 ([8]; read-out: IC50: Concentration to inhibit 50% of cell growth, OVCAR-3): 11.1 µM | CC50 ([8]; read-out: LC50: Concentration for 50% cell death, OVCAR-3): 87.8 µM | TGI: Concentration for total inhibition of cell growth ([7]; NHF): 53.452 µM | IC50 ([7]; NHF): 33.7 µM | CC50 ([7]; read-out: LC50: Concentration for 50% cell death, NHF): 93.6 µM | variation of denaturation temperature (Tm) of native hGal1 [11]: greater variation | inhibitory effect on galectin-induced hemagglutination [10]: better effect | effect on the profile of antiproliferative activity in association with cisplatin [12]: enhances
